Data published in patent US20240116962A1, “PYRIDINE-2-AMINE DERIVATIVE AND PHARMACEUTICAL COMPOSITION AND USE THEREOF” (TSINGHUA UNIVERSITY, priority 2020, published 2024).
Like-named read-outs stand apart in the source and are kept apart here.

How the values were obtained:
hTLR7 = target: T1, hTLR7 (Homo sapiens, UniProt Q9NYK1); assay: EC50 assay for small molecule agonists, HEK-Blue hTLR7 cells, SEAP readout; assay type: cell-based; conditions: agonist activity
T1 construct: host or cells: HEK-Blue hTLR7 (HEK293-derived reporter cells with SEAP read-out)
T1 sequence (Q9NYK1 27-1049): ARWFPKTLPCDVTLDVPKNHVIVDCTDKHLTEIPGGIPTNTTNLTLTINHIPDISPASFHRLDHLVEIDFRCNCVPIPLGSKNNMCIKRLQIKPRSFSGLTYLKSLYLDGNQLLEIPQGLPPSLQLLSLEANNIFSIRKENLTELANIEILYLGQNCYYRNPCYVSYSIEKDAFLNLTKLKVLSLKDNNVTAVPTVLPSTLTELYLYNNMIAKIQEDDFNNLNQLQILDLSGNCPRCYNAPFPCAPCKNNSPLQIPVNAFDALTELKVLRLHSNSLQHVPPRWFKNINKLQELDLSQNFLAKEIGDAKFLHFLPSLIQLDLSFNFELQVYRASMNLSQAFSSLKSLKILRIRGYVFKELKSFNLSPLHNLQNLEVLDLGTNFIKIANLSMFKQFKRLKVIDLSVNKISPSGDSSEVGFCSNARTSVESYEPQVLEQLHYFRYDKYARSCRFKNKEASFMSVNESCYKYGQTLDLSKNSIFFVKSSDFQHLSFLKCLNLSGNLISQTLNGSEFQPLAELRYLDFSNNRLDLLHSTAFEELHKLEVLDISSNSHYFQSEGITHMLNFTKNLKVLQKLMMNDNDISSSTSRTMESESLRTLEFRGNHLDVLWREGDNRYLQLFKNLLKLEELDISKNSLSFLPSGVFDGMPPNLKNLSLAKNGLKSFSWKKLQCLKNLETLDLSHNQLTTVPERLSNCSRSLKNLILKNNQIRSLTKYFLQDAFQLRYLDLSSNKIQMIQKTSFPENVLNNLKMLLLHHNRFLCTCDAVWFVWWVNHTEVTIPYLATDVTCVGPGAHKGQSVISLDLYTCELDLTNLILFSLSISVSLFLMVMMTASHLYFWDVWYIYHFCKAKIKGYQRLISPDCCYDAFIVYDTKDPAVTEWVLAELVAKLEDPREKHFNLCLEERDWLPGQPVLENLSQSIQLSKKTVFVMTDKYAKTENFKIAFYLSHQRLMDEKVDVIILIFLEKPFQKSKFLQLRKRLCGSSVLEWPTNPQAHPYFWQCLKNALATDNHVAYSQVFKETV
Description: (§1) Reagents used for cell culture and detection for HEK-Blue™ hTLR7, HEK-Blue™ hTLR8 and control HEK-Blue Nu112k were as follows: DMEM (4.5 g/L glucose), bovine serum FBS, streptomycin ([…]), penicillin (50 U/mL), Blasticidin (10 mg/mL), Zeocin™ (10 mg/mL), Normocin (50 mg/mL), and HEK-Blue™ Detection. Basal medium was as follows: DMEM +10% FBS+streptomycin+penicillin+Normocin ([…]); selective medium for resistance genes was as follows: DMEM+10% FBS+streptomycin+penicillin+Normocin (1001 μg/mL)+Blasticidin (1001 μg/mL)+Zeocin™ (1001 μg/mL).
(§2) Cell preparation: HEK-Blue™ hTLR7 and HEK-Blue™ hTLR8 cell lines were purchased from Invivogen. The cells frozen in liquid nitrogen were taken, quickly placed in a water bath at 37° C., shaken occasionally, and completely melted within 1 min. The cells were transferred to 15 mL of pre-heated basal medium and resuspended; centrifuged at 1,000 r/min for 5 min, supernatant discarded; resuspended with 1 mL of basal medium, transferred to a T25 culture flask, supplemented to 5 mL with the medium, and incubated in an incubator at 37° C.; after stable passage twice, and subjected to selective antibiotic screening: HEK-Blue™ hTLR7 or HEK-Blue™ hTLR8: 100 μg/mL Zeocin+Blasticidin (30 μg/mL), HEK-Blue Nu112-k: 100 μg/mL Zeocin. The fluid was changed 3 times a week. When the number of cells reached 70%-80%, PBS was added, and the cells were exfoliated by gently pipetting.
(§3) Activity assay steps: (1) adding a test sample to a 96-well plate at 20 μL/well (triplicate wells were set); (2) adding 20 μL of positive control (e.g., R848), and adding 20 μL of negative control (e.g., ddH2O); (3) removing a T75 culture flask from the incubator, discarding the medium, adding 5-10 mL of pre-heated PBS, and gently pipetting the cells; adding 2-5 mL of PBS to the culture flask, incubating the culture flask in the incubator for 1-2 min, and then gently pipetting the cells to make them exfoliated; (4) mixing the mixture well, and counting the cells, without centrifugation; resuspending the cells with HEK-Blue™ assay solution and adjusting the cell number, taking care not to incubate for a long time to avoid too deep background or false positive. HEK-Blue hTLR cell number was about 2.2×10^5/mL, 180 μL/well (about 40000 cells), and HEK-Blue Nu112-k cell number was about 2.8×10^5/mL, 180 μL/well (about 50000 cells). (5) incubating the cells in the incubator at 37° C. for 6-16 h, and detecting at 620-655 nm for SEAP readings.
(§4) Effect %=(mean OD of the administration group−mean OD of the H2O group at each concentration)/(mean ODmax of the positive drug group−mean OD of the H2O group)×100. EC50 was calculated by fitting Lg [concentration]-effect curves using GraphPad Prism5 software.
(§5) Experimental results: the concentration for 50% of maximal effect (EC50) refers to a corresponding concentration of small molecules that can cause 50% of the maximal agonistic effect. […] EC50 represents a potency for agonizing the TLR8 receptor, with smaller values indicating better efficacy. […] In the following table, the unit of the agonist activity is nanomole, unless otherwise specified.

hTLR8 = target: T2, hTLR8 (Homo sapiens, UniProt Q9NR97); assay: EC50 assay for small molecule agonists, HEK-Blue hTLR8 cells, SEAP readout; assay type: cell-based
T2 construct: host or cells: HEK-Blue hTLR8 (HEK293-derived reporter cells with SEAP read-out)
T2 sequence (Q9NR97 27-1041): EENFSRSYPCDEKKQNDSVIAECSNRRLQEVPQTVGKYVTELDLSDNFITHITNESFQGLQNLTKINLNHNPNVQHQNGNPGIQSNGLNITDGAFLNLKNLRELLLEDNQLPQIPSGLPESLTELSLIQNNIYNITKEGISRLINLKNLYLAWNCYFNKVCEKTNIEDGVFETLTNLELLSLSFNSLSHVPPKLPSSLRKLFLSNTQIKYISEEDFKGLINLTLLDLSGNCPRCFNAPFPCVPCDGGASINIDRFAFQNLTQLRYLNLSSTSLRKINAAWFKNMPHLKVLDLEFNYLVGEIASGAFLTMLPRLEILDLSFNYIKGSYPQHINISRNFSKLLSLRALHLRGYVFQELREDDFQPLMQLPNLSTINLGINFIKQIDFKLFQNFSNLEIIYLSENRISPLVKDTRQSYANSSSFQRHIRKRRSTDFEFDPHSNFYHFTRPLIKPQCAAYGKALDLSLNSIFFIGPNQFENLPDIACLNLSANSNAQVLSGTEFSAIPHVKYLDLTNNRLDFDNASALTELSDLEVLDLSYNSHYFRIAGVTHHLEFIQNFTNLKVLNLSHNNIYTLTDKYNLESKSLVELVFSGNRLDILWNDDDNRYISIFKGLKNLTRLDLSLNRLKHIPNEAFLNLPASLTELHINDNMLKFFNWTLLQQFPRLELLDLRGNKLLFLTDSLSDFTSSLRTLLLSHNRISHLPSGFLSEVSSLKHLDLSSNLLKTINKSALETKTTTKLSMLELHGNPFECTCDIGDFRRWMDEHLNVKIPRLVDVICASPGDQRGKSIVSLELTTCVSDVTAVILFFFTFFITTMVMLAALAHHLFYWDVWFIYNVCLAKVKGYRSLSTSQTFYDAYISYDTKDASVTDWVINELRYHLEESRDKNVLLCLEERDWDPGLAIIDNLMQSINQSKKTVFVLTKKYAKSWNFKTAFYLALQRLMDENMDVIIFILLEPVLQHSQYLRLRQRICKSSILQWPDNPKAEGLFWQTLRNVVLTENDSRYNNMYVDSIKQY
Description: as §1, §2, §3, §4, §5

[1] = agonist activity, read-out: hTLR8(EC50)
[2] = read-out: concentration for 50% of maximal effect (EC50) hTLR8

Row | EC50 (hTLR7; nd = EC50 larger than 25 μM) | EC50 (hTLR8; [1]) | EC50 (hTLR8; [2]) | EC50 (hTLR7) | Compound
1 | > 25000 nM | > 4000 nM | – | – | CCCCCc1cc(Cc2ccccc2CN2CCOCC2)c(C)nc1N [Compound N36]
2 | > 25000 nM | > 4000 nM | – | – | CCCCCc1cc(Cc2ccccc2CN)c(C)nc1N [Compound N37]
3 | > 25000 nM | > 4000 nM | – | – | CCCCCc1cc(Cc2ccc(C(=O)N(C)C)cc2)c(C)nc1N [Compound N38]
4 | > 25000 nM | > 4000 nM | – | – | CCCCCc1cc(Cc2ccc(C(=O)N3CCCC3)cc2)c(C)nc1N [Compound N39]
5 | > 25000 nM | > 4000 nM | – | – | CCCCCc1cc(Cc2ccc(C(=O)N3CCOCC3)cc2)c(C)nc1N [Compound N40]
6 | > 25000 nM | > 4000 nM | – | – | CCCCCc1cc(Cc2ccc(C(=O)N3CCN(C)CC3)cc2)c(C)nc1N [Compound N41]
7 | > 25000 nM | 87 nM | – | – | CCCCCc1cc(Cc2ccc(CN(C)C)cc2OC)c(C)nc1N [Compound N42]
8 | > 25000 nM | 102 nM | – | – | CCCCCc1cc(Cc2ccc(CN3CCCC3)cc2OC)c(C)nc1N [Compound N43]
9 | > 25000 nM | 1130 nM | – | – | CCCCCc1cc(Cc2ccc(CN3CCOCC3)cc2OC)c(C)nc1N [Compound N44]
10 | > 25000 nM | 166 nM | – | – | CCCCCc1cc(Cc2ccc(CN3CCN(C)CC3)cc2OC)c(C)nc1N [Compound N45]
11 | > 25000 nM | 351 nM | – | – | CCCCCc1cc(Cc2ccc(CN(C)C)cc2O)c(C)nc1N [Compound N46]
12 | > 25000 nM | 473 nM | – | – | CCCCCc1cc(Cc2ccc(CN3CCCC3)cc2O)c(C)nc1N [Compound N47]
13 | > 25000 nM | > 4000 nM | – | – | CCCCCc1cc(Cc2ccc(CN3CCOCC3)cc2O)c(C)nc1N [Compound N48]
14 | > 25000 nM | 627 nM | – | – | CCCCCc1cc(Cc2ccc(CN3CCN(C)CC3)cc2O)c(C)nc1N [Compound N49]
15 | > 25000 nM | 105 nM | – | – | CCCCCc1cc(Cc2ccc(CN(C)C)cc2OC(C)=O)c(C)nc1N [Compound N50]
16 | > 25000 nM | 175 nM | – | – | CCCCCc1cc(Cc2ccc(CN3CCCC3)cc2OC(C)=O)c(C)nc1N [Compound N51]
17 | > 25000 nM | 252 nM | – | – | CCCCCc1cc(Cc2ccc(CN(C)C)cc2OC(=O)CC(C)C)c(C)nc1N [Compound N52]
18 | > 25000 nM | 273 nM | – | – | CCCCCc1cc(Cc2ccc(CN3CCN(C)CC3)cc2OC(C)=O)c(C)nc1N [Compound N53]
19 | > 25000 nM | 518 nM | – | – | CCCCCc1cc(CCc2ccc(CN(C)C)cc2)c(C)nc1N [Compound N54]
20 | > 25000 nM | – | 15 nM | – | CCCCNc1cc(Cc2ccc(CN(C)C)cc2)c(C)nc1N [Compound N55]
21 | > 25000 nM | 28 nM | – | – | CCCCNc1cc(Cc2ccc(CN3CCCC3)cc2)c(C)nc1N [Compound N56]
22 | > 25000 nM | 16 nM | – | – | CCCCNc1cc(Cc2ccc(CN3CC4(COC4)C3)cc2)c(C)nc1N [Compound N57]
23 | > 25000 nM | 40 nM | – | – | CCCCNc1cc(Cc2ccc(CN3CC4(COC4)C3)cc2F)c(C)nc1N [Compound N58]
24 | – | – | 102 nM | > 3000 nM | CCCN(CCC)C(=O)C1=Cc2ccc(-c3ccc(C(=O)N4CCCC4)cc3)cc2N=C(N)C1 [VTX2337, reference compound]
